Measured values published in ChEMBL document CHEMBL5346893, “1,2,4-Amino-triazine derivatives as pyruvate dehydrogenase kinase inhibitors: Synthesis and pharmacological evaluation” (Eur J Med Chem, 2023).
Calls of active or inactive are those of the source. The calls are words filed in the database; no cut-off is given here.

Tests used:
[1] = molecular target: T1, Heat shock protein HSP90 (Homo sapiens, UniProt P07900+P08238); assay: Inhibition of human recombinant HSP90 at 1.5 uM incubated for 30 mins by fluorescence polarization based analysis relative to control; assay type: protein assay
[2] = tested on: BXPC-3; assay: Antiproliferative activity against human BXPC-3 cells expressing wild type KRAS cultured as 3D spheroids assessed as inhibition of cell growth measured after 72 hrs by MTT assay; assay type: functional, cell-based; details: BXPC-3, 72 h
[3] = tested on: PSN1; assay: Antiproliferative activity against human PSN1 cells expressing KRAS mutant cultured as 3D spheroids assessed as inhibition of cell growth measured after 72 hrs by MTT assay; assay type: functional, cell-based; details: PSN1, 72 h
[4] = tested on: PSN1; assay: Induction of reactive oxygen species production in human PSN1 cells assessed as decrease in total cellular sulfhydryls level at IC50 incubated for 24 hrs by DTNB reagent based spectrophotometric analysis; assay type: functional, cell-based
[5] = tested on: PSN1; assay: Induction of apoptosis in human PSN1 cells assessed as chromatin condensation at IC50 incubated for 48 hrs by Hoechst 33258 staining based confocal microscopic analysis; assay type: functional, cell-based
[6] = tested on: PSN1; assay: Inhibition of PDK in human PSN1 cells expressing KRAS mutant assessed as decrease in lactate production levels at IC50 incubated for 60 mins by colorimetric analysis; assay type: cell-based
[7] = tested on: PSN1; assay: Downregulation of PDHA1 phosphorylation in human PSN1 cells at IC50 incubated for 24 hrs by ELISA assay; assay type: functional, cell-based
[8] = tested on: PSN1; assay: Induction of apoptosis in human PSN1 cells assessed as brightly stained nuclei at IC50 incubated for 48 hrs by Hoechst 33258 staining based confocal microscopic analysis; assay type: functional, cell-based
[9] = tested on: PSN1; assay: Inhibition of PDK in human PSN1 cells expressing KRAS mutant assessed as increase in cellular oxygen consumption at IC50 incubated for 60 mins by fluorescence based analysis; assay type: cell-based
[10] = molecular target: T2, [Pyruvate dehydrogenase (acetyl-transferring)] kinase isozyme 1, mitochondrial (Homo sapiens, UniProt Q15118); assay: Inhibition of PDK1 (unknown origin) incubated for 30 mins followed by substrate addition measured after 60 mins in presence of ATP by ADP-Glo luminescent assay
[11] = molecular target: T2, [Pyruvate dehydrogenase (acetyl-transferring)] kinase isozyme 1, mitochondrial; assay: Inhibition of PDK1 (unknown origin) at 1.5 uM incubated for 30 mins followed by substrate addition measured after 60 mins in presence of ATP by ADP-Glo luminescent assay relative to control; details: time 90.0 min, values are per cent of control
[12] = molecular target: [Pyruvate dehydrogenase (acetyl-transferring)] kinase isozyme 4, mitochondrial (Homo sapiens) (UniProt Q16654); assay: Inhibition of PDK4 (unknown origin) at 1.5 uM incubated for 30 mins followed by substrate addition measured after 60 mins in presence of ATP by ADP-Glo luminescent assay relative to control; details: time 90.0 min
[13] = tested on: PSN1; assay: Antiproliferative activity against human PSN1 cells expressing KRAS mutant cultured as 2D spheroids assessed as inhibition of cell growth measured after 72 hrs by MTT assay; assay type: functional, cell-based; details: PSN1, 72 h
[14] = tested on: PSN1; assay: Induction of mitochondrial damage in human PSN1 cells assessed as increase in mitochondria substantial swelling at IC50 incubated for 24 hrs by staining based TEM analysis; assay type: functional, cell-based
[15] = tested on: PSN1; assay: Induction of mitochondrial damage in human PSN1 cells assessed as decrease in mitochondria inner membrane electron density at IC50 incubated for 24 hrs by staining based TEM analysis; assay type: functional, cell-based
[16] = tested on: BXPC-3; assay: Antiproliferative activity against human BXPC-3 cells expressing wild type KRAS cultured as 2D spheroids assessed as inhibition of cell growth measured after 72 hrs by MTT assay; assay type: functional, cell-based; details: BXPC-3, 72 h
[17] = tested on: PSN1; assay: Induction of mitochondrial membrane potential loss in human PSN1 cells at IC50 incubated for 60 mins by fluorescence based analysis; assay type: functional
[18] = tested on: PSN1; assay: Induction of mitochondrial damage in human PSN1 cells assessed as decrease in mitochondria matrix region electron density at IC50 incubated for 24 hrs by staining based TEM analysis; assay type: functional, cell-based
[19] = tested on: PSN1; assay: Induction of mitochondrial damage in human PSN1 cells assessed as increase in disruption of cristae at IC50 incubated for 24 hrs by staining based TEM analysis; assay type: functional, cell-based
[20] = molecular target: [Pyruvate dehydrogenase (acetyl-transferring)] kinase isozyme 2, mitochondrial (Homo sapiens) (UniProt Q15119); assay: Inhibition of PDK2 (unknown origin) at 1.5 uM incubated for 30 mins followed by substrate addition measured after 60 mins in presence of ATP by ADP-Glo luminescent assay relative to control; details: time 90.0 min
[21] = tested on: PSN1; assay: Induction of reactive oxygen species production in human PSN1 cells assessed as increase in cellular hydrogen peroxide formation at 5 uM by CM-H2DCFDA staining based analysis; assay type: functional, cell-based
[22] = molecular target: T1, Heat shock protein HSP90; assay: Inhibition of human recombinant HSP90 incubated for 30 mins by fluorescence polarization based analysis; assay type: protein assay
[23] = Toxicity in C57BL mouse implanted with mouse Lewis lung carcinoma cell line assessed as reduction in body weight loss at 20 mg/kg, ip administered daily on day 7 to 14 measured after 15 days; assay type: organism-based; details: in vivo, 360 h, time 15 day
[24] = molecular target: [Pyruvate dehydrogenase (acetyl-transferring)] kinase isozyme 3, mitochondrial (Homo sapiens) (UniProt Q15120); assay: Inhibition of PDK3 (unknown origin) at 1.5 uM incubated for 30 mins followed by substrate addition measured after 60 mins in presence of ATP by ADP-Glo luminescent assay relative to control; details: time 90.0 min
[25] = tested on: Lewis lung carcinoma; assay: In vivo antitumor activity against mouse Lewis lung carcinoma cell line implanted in C57BL mouse assessed as reduction in PDHA1 phosphorylation at 20 mg/kg, ip administered daily on day 7 to 14 measured after 15 days by ELISA assay; assay type: functional, organism-based; details: time 15.0 day
[26] = In vivo antitumor activity against mouse Lewis lung carcinoma cell line implanted in C57BL mouse assessed as tumor growth inhibition at 20 mg/kg, ip administered daily on day 7 to 14 measured after 15 days; assay type: functional; details: 360 h, time 15 day, read-out: TGI
[27] = Toxicity in C57BL mouse implanted with mouse Lewis lung carcinoma cell line assessed as anorexia at 20 mg/kg, ip administered daily on day 7 to 14 measured after 15 days; assay type: organism-based; details: in vivo, 360 h, time 15 day
[28] = In vivo antitumor activity against mouse Lewis lung carcinoma cell line implanted in C57BL mouse assessed as tumor growth inhibition at 60 mg/kg, ip administered daily on day 7 to 14 measured after 15 days; assay type: functional; details: 360 h, time 15 day, read-out: TGI

T2 sequence (Q15118 whole entry): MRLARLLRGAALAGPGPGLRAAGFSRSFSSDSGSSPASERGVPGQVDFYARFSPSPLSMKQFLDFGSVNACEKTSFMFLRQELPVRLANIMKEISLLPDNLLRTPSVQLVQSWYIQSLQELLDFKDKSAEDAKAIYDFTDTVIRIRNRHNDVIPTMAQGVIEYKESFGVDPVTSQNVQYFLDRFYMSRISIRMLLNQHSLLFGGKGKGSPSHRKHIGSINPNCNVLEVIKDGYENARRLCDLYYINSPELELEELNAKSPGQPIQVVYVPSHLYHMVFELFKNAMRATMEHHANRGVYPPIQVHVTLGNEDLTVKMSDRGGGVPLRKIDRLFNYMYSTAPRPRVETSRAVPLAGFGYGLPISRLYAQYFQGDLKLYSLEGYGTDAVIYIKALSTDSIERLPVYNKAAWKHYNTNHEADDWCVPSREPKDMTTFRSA
[Pyruvate dehydrogenase (acetyl-transferring)] kinase isozyme 4, mitochondrial (Homo sapiens), sequence (Q16654 whole entry, looked up): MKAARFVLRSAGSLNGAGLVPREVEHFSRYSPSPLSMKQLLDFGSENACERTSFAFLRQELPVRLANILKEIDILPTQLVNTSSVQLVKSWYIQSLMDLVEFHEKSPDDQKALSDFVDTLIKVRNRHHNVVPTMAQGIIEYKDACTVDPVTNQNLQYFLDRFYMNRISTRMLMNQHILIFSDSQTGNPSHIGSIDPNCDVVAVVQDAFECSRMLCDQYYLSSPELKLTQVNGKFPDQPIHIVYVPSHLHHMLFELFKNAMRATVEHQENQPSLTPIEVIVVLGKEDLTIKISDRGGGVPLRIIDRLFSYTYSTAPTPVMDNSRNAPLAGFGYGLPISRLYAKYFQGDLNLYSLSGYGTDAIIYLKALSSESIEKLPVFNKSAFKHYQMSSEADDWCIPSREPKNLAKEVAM
[Pyruvate dehydrogenase (acetyl-transferring)] kinase isozyme 3, mitochondrial (Homo sapiens), sequence (Q15120 whole entry, looked up): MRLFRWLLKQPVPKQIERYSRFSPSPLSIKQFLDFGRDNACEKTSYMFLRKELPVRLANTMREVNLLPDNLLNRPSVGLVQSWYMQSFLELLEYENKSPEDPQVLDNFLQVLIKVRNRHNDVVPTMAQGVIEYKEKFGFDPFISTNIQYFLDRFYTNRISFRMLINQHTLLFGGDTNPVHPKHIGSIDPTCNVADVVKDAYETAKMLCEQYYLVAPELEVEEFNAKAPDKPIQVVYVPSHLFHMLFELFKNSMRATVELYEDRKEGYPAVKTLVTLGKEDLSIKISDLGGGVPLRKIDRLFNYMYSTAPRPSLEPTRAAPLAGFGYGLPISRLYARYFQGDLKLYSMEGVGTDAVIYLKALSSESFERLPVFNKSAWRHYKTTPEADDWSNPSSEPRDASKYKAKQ

| inhibition [1] [%] | IC50 [2] [nM] | IC50 [10] [nM] | residual activity [11] [%] | inhibition [12] [%] | IC50 [16] [nM] | inhibition [20] [%] | SMILES | IC50 [3] [nM] | Activity [4] | Activity [5] | inhibition [6] | Activity [7] | Activity [8] | inhibition [9] | IC50 [13] [nM] | Activity [14] | Activity [15] | Activity [17] | Activity [18] | Activity [21] | further results |
| --- | --- | --- | --- | --- | --- | --- | --- | --- | --- | --- | --- | --- | --- | --- | --- | --- | --- | --- | --- | --- | --- |
| 60 | 6900 | 60 | 0 | 0 | 200 | 100 | Cn1cc(-c2nnc(N)nc2-c2c[nH]c3ccc(F)cc23)c2cc(Br)cnc21 | 11200 | Active | Active | Active | Active | Active | Active | 600 | Active | Active | Active | Active | Active | Activity [19]: Active |
| 40 | 24800 | 210 | 60 | 60 | 100 | 100 | Cn1cc(-c2nnc(N)nc2-c2c[nH]c3ccc(Br)cc23)c2cc(Br)cnc21 | 39100 | Active | – | Active | Active | – | Active | 1300 | – | – | Active | – | Active | IC50 [22]: 1400 nM |
| – | – | – | – | – | 100 | – | Nc1ccn([C@@H]2O[C@H](CO)[C@@H](O)C2(F)F)c(=O)n1 [GEMCITABINE] | – | – | – | – | – | – | – | 20 | – | – | – | – | – | inhibition in vivo at 60 mg/kg [28]: 80% |

| SMILES | inhibition [1] [%] | IC50 [2] [nM] | IC50 [10] [nM] | residual activity [11] [%] | inhibition [12] [%] | IC50 [16] [nM] | inhibition [20] [%] | IC50 [3] [nM] | Activity [4] | Activity [5] | inhibition [6] | Activity [7] | Activity [8] | inhibition [9] | IC50 [13] [nM] | Activity [14] | Activity [15] | Activity [17] | Activity [18] | Activity [21] | further results |
| --- | --- | --- | --- | --- | --- | --- | --- | --- | --- | --- | --- | --- | --- | --- | --- | --- | --- | --- | --- | --- | --- |
| COc1ccc2[nH]cc(-c3nnc(N)nc3-c3cn(C)c4ncc(Br)cc34)c2c1 | 0 | 3300 | 30 | 0 | 0 | 100 | 100 | 11900 | Active | Active | Active | Active | Active | Active | 1000 | Active | Active | – | Active | Active | Activity [23]: Non-Toxic; IC50 [22]: 100 nM; inhibition [24]: 100%; Activity [25]: Active; inhibition in vivo at 20 mg/kg [26]: 86%; Activity [27]: ~ 20%; Activity ([17]; 1 h): 45%; Activity [19]: Active |
